Measurements reported in the NIST ThermoML archive (doi:10.1021/acs.jced.7b00564).
± gives the expanded uncertainty stated by the source.

Assay: xn = mol fraction of the nth substance listed
Conditions: Gas, isochoric method

F/C=C/C(F)(F)F [trans-1,3,3,3-tetrafluoropropene] + CC(C)C
Conditions	specific volume [m3/kg]
303.15 K, 259.6 kPa, x2 = 0.516	0.1062 ± 0.0008
303.15 K, 267.9 kPa, x2 = 0.29	0.0895 ± 0.0008
303.15 K, 304.9 kPa, x2 = 0.685	0.1004 ± 0.0008
303.15 K, 305.5 kPa, x2 = 0.428	0.0844 ± 0.0008
303.15 K, 321 kPa, x2 = 0.612	0.089 ± 0.0009
303.15 K, 367.4 kPa, x2 = 0.755	0.0856 ± 0.0008
308.15 K, 264.5 kPa, x2 = 0.516	0.1062 ± 0.0008
308.15 K, 273 kPa, x2 = 0.29	0.0895 ± 0.0008
308.15 K, 310.7 kPa, x2 = 0.685	0.1004 ± 0.0008
308.15 K, 311.3 kPa, x2 = 0.428	0.0844 ± 0.0008
308.15 K, 327.2 kPa, x2 = 0.612	0.089 ± 0.0008
308.15 K, 374.9 kPa, x2 = 0.755	0.0856 ± 0.0008
313.15 K, 269.2 kPa, x2 = 0.516	0.1062 ± 0.0008
313.15 K, 277.9 kPa, x2 = 0.29	0.0896 ± 0.0007
313.15 K, 316.5 kPa, x2 = 0.685	0.1005 ± 0.0007
313.15 K, 317.1 kPa, x2 = 0.428	0.0844 ± 0.0008
313.15 K, 333.4 kPa, x2 = 0.612	0.0891 ± 0.0008
313.15 K, 382.2 kPa, x2 = 0.755	0.0857 ± 0.0008
318.15 K, 274 kPa, x2 = 0.516	0.1063 ± 0.0008
318.15 K, 282.8 kPa, x2 = 0.29	0.0896 ± 0.0007
318.15 K, 322.2 kPa, x2 = 0.685	0.1005 ± 0.0007
318.15 K, 322.8 kPa, x2 = 0.428	0.0845 ± 0.0008
318.15 K, 339.5 kPa, x2 = 0.612	0.0891 ± 0.0008
318.15 K, 389.5 kPa, x2 = 0.755	0.0857 ± 0.0007
323.15 K, 278.8 kPa, x2 = 0.516	0.1063 ± 0.0008
323.15 K, 287.8 kPa, x2 = 0.29	0.0896 ± 0.0007
323.15 K, 328 kPa, x2 = 0.685	0.1005 ± 0.0007
323.15 K, 328.5 kPa, x2 = 0.428	0.0845 ± 0.0008
323.15 K, 345.6 kPa, x2 = 0.612	0.0891 ± 0.0008
323.15 K, 396.8 kPa, x2 = 0.755	0.0857 ± 0.0007
328.15 K, 283.5 kPa, x2 = 0.516	0.1063 ± 0.0007
328.15 K, 292.7 kPa, x2 = 0.29	0.0896 ± 0.0007
328.15 K, 333.7 kPa, x2 = 0.685	0.1005 ± 0.0007
328.15 K, 334.2 kPa, x2 = 0.428	0.0845 ± 0.0007
328.15 K, 351.7 kPa, x2 = 0.612	0.0891 ± 0.0008
328.15 K, 404 kPa, x2 = 0.755	0.0857 ± 0.0007
333.15 K, 288.2 kPa, x2 = 0.516	0.1063 ± 0.0007
333.15 K, 297.6 kPa, x2 = 0.29	0.0896 ± 0.0007
333.15 K, 339.5 kPa, x2 = 0.685	0.1005 ± 0.0007
333.15 K, 339.9 kPa, x2 = 0.428	0.0845 ± 0.0007
333.15 K, 357.8 kPa, x2 = 0.612	0.0891 ± 0.0008
333.15 K, 411.2 kPa, x2 = 0.755	0.0857 ± 0.0007
338.15 K, 292.9 kPa, x2 = 0.516	0.1064 ± 0.0007
338.15 K, 302.5 kPa, x2 = 0.29	0.0897 ± 0.0007
338.15 K, 345.1 kPa, x2 = 0.685	0.1006 ± 0.0007
338.15 K, 345.6 kPa, x2 = 0.428	0.0845 ± 0.0007
338.15 K, 363.8 kPa, x2 = 0.612	0.0892 ± 0.0007
338.15 K, 418.3 kPa, x2 = 0.755	0.0857 ± 0.0007
343.15 K, 297.6 kPa, x2 = 0.516	0.1064 ± 0.0007
343.15 K, 307.4 kPa, x2 = 0.29	0.0897 ± 0.0007
343.15 K, 350.8 kPa, x2 = 0.685	0.1006 ± 0.0007
343.15 K, 351.2 kPa, x2 = 0.428	0.0846 ± 0.0007
343.15 K, 369.8 kPa, x2 = 0.612	0.0892 ± 0.0007
343.15 K, 425.4 kPa, x2 = 0.755	0.0858 ± 0.0007
348.15 K, 302.3 kPa, x2 = 0.516	0.1064 ± 0.0007
348.15 K, 312.2 kPa, x2 = 0.29	0.0897 ± 0.0007
348.15 K, 356.5 kPa, x2 = 0.685	0.1006 ± 0.0007
348.15 K, 356.9 kPa, x2 = 0.428	0.0846 ± 0.0007
348.15 K, 375.8 kPa, x2 = 0.612	0.0892 ± 0.0007
348.15 K, 432.4 kPa, x2 = 0.755	0.0858 ± 0.0007
353.15 K, 307 kPa, x2 = 0.516	0.1064 ± 0.0007
353.15 K, 317.1 kPa, x2 = 0.29	0.0897 ± 0.0007
353.15 K, 362.1 kPa, x2 = 0.685	0.1006 ± 0.0007
353.15 K, 362.6 kPa, x2 = 0.428	0.0846 ± 0.0007
353.15 K, 381.8 kPa, x2 = 0.612	0.0892 ± 0.0007
353.15 K, 439.4 kPa, x2 = 0.755	0.0858 ± 0.0007
358.15 K, 311.7 kPa, x2 = 0.516	0.1064 ± 0.0007
358.15 K, 321.9 kPa, x2 = 0.29	0.0897 ± 0.0006
358.15 K, 367.7 kPa, x2 = 0.685	0.1007 ± 0.0007
358.15 K, 368.2 kPa, x2 = 0.428	0.0846 ± 0.0007
358.15 K, 387.8 kPa, x2 = 0.612	0.0892 ± 0.0007
358.15 K, 446.5 kPa, x2 = 0.755	0.0858 ± 0.0007
363.15 K, 316.4 kPa, x2 = 0.516	0.1065 ± 0.0007
363.15 K, 326.8 kPa, x2 = 0.29	0.0898 ± 0.0006
363.15 K, 373.3 kPa, x2 = 0.685	0.1007 ± 0.0007
363.15 K, 373.9 kPa, x2 = 0.428	0.0846 ± 0.0007
363.15 K, 393.7 kPa, x2 = 0.612	0.0892 ± 0.0007
363.15 K, 453.5 kPa, x2 = 0.755	0.0858 ± 0.0006
368.15 K, 321.1 kPa, x2 = 0.516	0.1065 ± 0.0007
368.15 K, 331.6 kPa, x2 = 0.29	0.0898 ± 0.0006
368.15 K, 379 kPa, x2 = 0.685	0.1007 ± 0.0007
368.15 K, 379.5 kPa, x2 = 0.428	0.0846 ± 0.0007
368.15 K, 399.7 kPa, x2 = 0.612	0.0893 ± 0.0007
368.15 K, 460.5 kPa, x2 = 0.755	0.0859 ± 0.0006
373.15 K, 325.7 kPa, x2 = 0.516	0.1065 ± 0.0007
373.15 K, 336.5 kPa, x2 = 0.29	0.0898 ± 0.0006
373.15 K, 384.7 kPa, x2 = 0.685	0.1007 ± 0.0006
373.15 K, 385.1 kPa, x2 = 0.428	0.0847 ± 0.0006
373.15 K, 405.6 kPa, x2 = 0.612	0.0893 ± 0.0006
373.15 K, 467.6 kPa, x2 = 0.755	0.0859 ± 0.0006
378.15 K, 330.4 kPa, x2 = 0.516	0.1065 ± 0.0006
378.15 K, 341.4 kPa, x2 = 0.29	0.0898 ± 0.0006
378.15 K, 390.3 kPa, x2 = 0.685	0.1007 ± 0.0006
378.15 K, 390.7 kPa, x2 = 0.428	0.0847 ± 0.0006
378.15 K, 411.7 kPa, x2 = 0.612	0.0893 ± 0.0006
378.15 K, 474.5 kPa, x2 = 0.755	0.0859 ± 0.0006
383.15 K, 335.1 kPa, x2 = 0.516	0.1066 ± 0.0006
383.15 K, 346.2 kPa, x2 = 0.29	0.0898 ± 0.0006
383.15 K, 395.9 kPa, x2 = 0.685	0.1008 ± 0.0006
383.15 K, 396.3 kPa, x2 = 0.428	0.0847 ± 0.0006
383.15 K, 417.6 kPa, x2 = 0.612	0.0893 ± 0.0006
383.15 K, 481.6 kPa, x2 = 0.755	0.0859 ± 0.0006
